Assays:
[1] = tested on: eosinophil accumulation in the airway lumen; experiment: Suppression of eosinophil accumulation in allergen (ovalbumin) treated, sensitised animals; airway lavage cell counts; format: in vivo, Guinea-pigs (Dunkin-Hartley, male); conditions: for airway eosinophil accumulation compared with untreated controls: 10.0 - 100mg/kg/day as a solution orally for 6 consecutive days prior to challenge, 1 hour prior and seven hours after challenge, lavage 24 hours after challenge
[2] = tested on: allergen induced eosinophilia; experiment: Influence on allergen induced eosinophilia following inhalation of test compound; bronchoalveolar lavage 24 hrs after challenge; format: in vivo, Male guinea-pigs (Dunkin-Hartley); conditions: inhalation immediately before challenge, 10.0 to 100mg/kg; lavage 24 hrs following challenge
Protocol: EXAMPLE B: INFLUENCE ON ALLERGEN INDUCED EOSINOPHILIA IN THE GUINEA-PIG FOLLOWING INHALATION
Male guinea-pigs (Dunkin-Hartley) of ca. 300-400g are sensitized employing 10µg amounts of ovalbumin (3x) and applying the technique described in Sanjar et al., Br. J. Pharmacol., 99, 679-686 (1990).
Immediately before challenge COMPOUND OF THE INVENTION, for example COMPOUND D2 or COMPOUND K1 each in substantially pure form, is administered to sensitized animals by inhalation. Administration is effected via a nose-cone either in dry powder with delivery from a brush feed micronising jet mill powder aerosol generator, as described in Bernstein et al. "Aerosols: Science, Technology and Industrial Application of Airborne Particles", Extended Abstract, eds. B.Y.H. Liu. et. al., Elsevier Science, New York, 1984 or in solution from a nebulizer. Antigen challenge or exposure is then carried out, again in accordance with the methods described by Sanjar et. al. loc cit. at p. 680 column 1, employing 10µg ovalbumin in 0.01% solution. Broncheolar lavage is performed 24 hrs following challenge, as follows: • 1. Airway lavage Guinea-pigs are killed by an intraperitoneal injection of pentobarbitone 100mg/kg). The trachea is exposed and cannulated. 10ml of Hank's balanced solution is introduced into the lungs and immediately aspirated by gentle compression of the lung tissue. This procedure is repeated five times. Aspiration fluid is pooled at room temperature in Falcon plastic tubes (60ml). Fluid recovered from the six washes normally exceeds 50ml (85%). The cell suspension is centrifuged (200g for 10 minutes); the supernatant is discarded and the cell pellet resuspended in 1ml of Hank's balanced solution. • 2. Total cell counts 10µl of the 1ml cell suspension is added to 190µl or 90µl (when cell count is low) of Turk's stain (Merck, Darmstadt, Germany) and total cell numbers are determined in a Neubauer (brightline) hemocytometer. The incidence of cells in the 1ml suspension is calculated by multiplying the total cells enumerated in a square of 1mm² by the original dilution viz.: No. of cells counted x dilution x […] = no. of cells/ml. • 3. Differential cell counts The cell suspension is diluted in Hank's balanced solution to obtain a cell concentration of 10⁶ cells per ml. 50µl of this cell suspension is placed in the cytospin (Cytospin 2, Shandon Co.) tube and overlaid by 200µl of buffer. The cytospin is used at 600rpm for 8 minutes. Results for groups of animals receiving COMPOUNDS OF THE INVENTION at varying doses are compared with results for control challenged animals receiving no test substance.

[3] = tested on: allergic, atopic bronchoconstrictor response; experiment: Clinical trial 1.1: prophylactic efficacy before allergen challenge in obstructive inflammatory airways disease, e.g. asthma; format: in vivo, subjects (human); conditions: oral ca. 10 to 800mg/day, 1 to 2 hours or 1 to 7 days prior to allergen challenge; compared with placebo
Protocol: (§1) Suitable individual oral dosages, e.g. for COMPOUNDS D2 and K1 in substantially pure form, in such clinical trials comprise, e.g. from ca. 10 to 800mg, e.g. from ca. 50 to 250mg/day, for example at dosages of ca. 25, 50, 200 or 400mg/day orally administered 1x or in divided doses 2 to 3x daily, for example in encapsulated form as hereinafter described in EXAMPLE F. Both acute (0 to 1 hour) and long-term (up to 12 hour) change in lung function is determined post-medication by measurement of lung function parameters, e.g. as follows: • a) FVC; FEV 0.5; FEV 1.0; FEV 3.0; • b) FEV 0.5/FVC; FEV 1/FVC; FEV 3/FVC; • c) PEF; FEF 25-75%; FEF 75-85%; FEF 25%; FEF 50%; FEF 75%; FEF 0.2-1.2 • d) Flow expiratory curve and flow inspiratory curve. Tolerance of medication and possible occurrence of side effects are also reported. In addition to monitoring of lung function, blood eosinophil levels are also monitored and the incidence of activated eosinophils and eosinophil secretory proteins determined. In individual studies, subjects are also subjected to lung lavage and the presence of eosinophils and platelets and their respective secretory products determined before and after exposure to allergen. […] Initial dosaging for e.g. COMPOUND D2 or COMPOUND K1 in substantially pure form is of the order of from 10 to 800mg, e.g. from ca. 50 to 250mg/day, for example at dosages of ca. 25, 50, 200 or 400mg/day administered, e.g. orally once or in divided dosages 2 to 3x daily with subsequent reduction in appropriate cases to a maintenance dosage of 10 to 400mg/day orally. (Suitable dosage forms are e.g. as hereinafter described in EXAMPLE F). During the course of the trial subjects are monitored continually and all relevant parameters recorded including lung function, alterations in the incidence of activated eosinophils or the release of eosinophil products into the blood or bronchial fluids and, in particular, frequency and severity of asthma exacerbation or attack. Additional bronchodilator therapy is provided on the occasion of any such attack. […] During the course of the trial, subjects are monitored continually and all relevant parameters are recorded, including basal lung function, frequency of attack with impairment of lung function, requirement for other medication and frequency of absenteeism attributable to disease status. […] In cases where frequent use of alternative medication is recorded at trial entry, reduced need for concomitant medication is also observed as the trial progresses. […] Recorded symptomatology attributable to condition is also found to undergo reversal during treatment. […]

[4] = tested on: asthma exacerbation or attack; experiment: Clinical trial 1.2: long-term prophylactic efficacy in asthmatic subjects; format: in vivo, asthmatic subjects (human); conditions: 10 to 800mg/day orally; for frequency of asthma exacerbation or attack: at least 2 up to 6 months and more, compared with alternative, non-prophylactic therapy; for need for concomitant (bronchodilator) therapy: at least 2 up to 6 months, subjects initially dependent on methyl-xanthine or β₂-agonist therapy
Protocol: as §1

[5] = tested on: pneumoconiosis or severe bronchitis; experiment: Clinical trial 2: utility in pneumoconiosis/bronchitis; format: in vivo, subjects (human); conditions: daily oral dosage as under 1.2, in excess of 2 months; for need for concomitant medication: frequent alternative medication at trial entry
Protocol: (§2) Suitable individual oral dosages, e.g. for COMPOUNDS D2 and K1 in substantially pure form, in such clinical trials comprise, e.g. from ca. 10 to 800mg, e.g. from ca. 50 to 250mg/day, for example at dosages of ca. 25, 50, 200 or 400mg/day orally administered 1x or in divided doses 2 to 3x daily, for example in encapsulated form as hereinafter described in EXAMPLE F. Both acute (0 to 1 hour) and long-term (up to 12 hour) change in lung function is determined post-medication by measurement of lung function parameters, e.g. as follows: • a) FVC; FEV 0.5; FEV 1.0; FEV 3.0; • b) FEV 0.5/FVC; FEV 1/FVC; FEV 3/FVC; • c) PEF; FEF 25-75%; FEF 75-85%; FEF 25%; FEF 50%; FEF 75%; FEF 0.2-1.2 • d) Flow expiratory curve and flow inspiratory curve. Tolerance of medication and possible occurrence of side effects are also reported. In addition to monitoring of lung function, blood eosinophil levels are also monitored and the incidence of activated eosinophils and eosinophil secretory proteins determined. In individual studies, subjects are also subjected to lung lavage and the presence of eosinophils and platelets and their respective secretory products determined before and after exposure to allergen. […] Initial dosaging for e.g. COMPOUND D2 or COMPOUND K1 in substantially pure form is of the order of from 10 to 800mg, e.g. from ca. 50 to 250mg/day, for example at dosages of ca. 25, 50, 200 or 400mg/day administered, e.g. orally once or in divided dosages 2 to 3x daily with subsequent reduction in appropriate cases to a maintenance dosage of 10 to 400mg/day orally. (Suitable dosage forms are e.g. as hereinafter described in EXAMPLE F). During the course of the trial subjects are monitored continually and all relevant parameters recorded including lung function, alterations in the incidence of activated eosinophils or the release of eosinophil products into the blood or bronchial fluids and, in particular, frequency and severity of asthma exacerbation or attack. Additional bronchodilator therapy is provided on the occasion of any such attack. […] UTILITY IN PNEUMOCONIOSIS/BRONCHITIS The trial is performed analogously to 1.2 above but with groups of subjects having a history of pneumoconiosis or severe bronchitis, e.g. characterised by events of restricted lung function, for example including difficulty in breathing, wheezing, dyspnea or occasional bronchoconstrictor attack and a record of pneumoconiosis- or bronchitis-related work absenteeism. […] COMPOUND D2 or COMPOUND K1 each in substantially pure form is administered daily at oral dosage rates as set forth under 1.2 above, over periods in excess of 2, preferably in excess of 3, months. During the course of the trial, subjects are monitored continually and all relevant parameters are recorded, including basal lung function, frequency of attack with impairment of lung function, requirement for other medication and frequency of absenteeism attributable to disease status. […] In cases where frequent use of alternative medication is recorded at trial entry, reduced need for concomitant medication is also observed as the trial progresses. Similar results are obtainable employing other COMPOUNDS OF THE INVENTION at the same or equivalent dosage rates. • 3. […] COMPOUND D2 or COMPOUND K1 in substantially pure form is administered orally at a daily dosage rate of from 10 to 400mg, e.g. from cam. 50 to 250mg/day, for example at dosages of ca. 25, 50 or 200mg, e.g. in dosage form as hereinafter described in EXAMPLE F. The trial is continued for a period of up to 2 to 3 months. Blood samples are collected regularly during the course of the trial and assayed for blood-eosinophil count, incidence of activated eosinophils and levels of eosinophil secretory proteins. […] Recorded symptomatology attributable to condition is also found to undergo reversal during treatment. Similar results are obtainable employing other COMPOUNDS OF THE INVENTION at the same or equivalent dosage rates.

[6] = tested on: elevated eosinophil presence in the blood; experiment: Clinical trial 3: utility in hypereosinophilia and eosinophil-related disorders; format: in vivo, subjects (human); conditions: orally 10 to 400mg daily, up to 2 to 3 months
Protocol: as §2

[7] = Acute toxicity (LD50) in mice; conditions: mouse, in vivo, read-out: LD₅₀
Protocol: (§3) Thus established LD₅₀ values for the COMPOUND D2 in substantially pure form in mice and rats after 14 days p.o. and 7 days i.v. are: in mice, p.o […], i.v. 163 mg/kg; in rats, p.o. 1721 mg/kg, i.v. 50 mg/kg.

[8] = Acute toxicity (LD50) in rats; conditions: rat, in vivo, read-out: LD₅₀
Protocol: as §3

beagle dogs = experiment: 26-week oral tolerability in beagle dogs; format: in vivo; conditions: up to 200 mg/kg/day P.O for 26 weeks
[9] = Tolerability in clinical trials; format: in vivo, human; conditions: oral dosage rates of 50, 200 and 400mg/day
beagle dog = experiment: Pilot toxicological studies in the beagle dog; format: in vivo; conditions: 150 and 200 mg/kg p.o. in gelatin capsules over 5 weeks and in olive oil from week 6 to week 8 on

COC1=Cc2ccccc2C(=CC(=O)O)c2ccsc21 [COMPOUND D2, [10-Methoxy-4H-benzo[4,5]cyclohepta[1,2-b]thiophen-4-ylidene]-acetic acid]
airway eosinophil accumulation compared with untreated controls [1]: significant reduction
activity in the subject test model (airway eosinophil accumulation) ([1]; dosages of 10 and 50mg/kg/day s.c.): significant activity
eosinophil counts as compared with control groups [2]: clear reduction
neutrophil counts as compared with control groups [2]: clear reduction
total cell counts as compared with control groups [2]: clear reduction
eosinophilic response [3]: reduction of eosinophilic response
lung function parameters [3]: marked improvement
frequency of asthma exacerbation or attack [4]: marked reduction
need for concomitant (bronchodilator) therapy [4]: increasingly reduced need
basal lung function [5]: overall improvement
frequency of attack and absenteeism [5]: reduced frequency
need for concomitant medication [5]: reduced need
blood-eosinophil count [6]: decreased blood-eosinophil count
incidence of activated eosinophils and eosinophil secretory protein levels [6]: decreased incidence
recorded symptomatology attributable to condition [6]: reversal
LD50 at 168 h ([7]; iv, after 7 days): 163 mg/kg
LD50 at 336 h ([7]; po, after 14 days): 1620 mg/kg
LD50 at 168 h ([8]; iv, after 7 days): 50 mg/kg
LD50 at 336 h ([8]; po, after 14 days): 1720 mg/kg
tolerability (beagle dogs): generally well tolerated
tolerability / side effects [9]: well tolerated with no significant side effect occurrance

COC1=Cc2ccccc2C(=CC(=O)O)c2cc(Cl)sc21 [COMPOUND K1, [2-Chloro-10-methoxy-4H-benzo[4,5]cyclohepta[1,2-b]thiophen-4-ylidene]-acetic acid]
airway eosinophil accumulation compared with untreated controls [1]: significant reduction
eosinophil counts as compared with control groups [2]: clear reduction
neutrophil counts as compared with control groups [2]: clear reduction
total cell counts as compared with control groups [2]: clear reduction
basal lung function [5]: overall improvement
frequency of attack and absenteeism [5]: reduced frequency
need for concomitant medication [5]: reduced need
blood-eosinophil count [6]: decreased blood-eosinophil count
incidence of activated eosinophils and eosinophil secretory protein levels [6]: decreased incidence
recorded symptomatology attributable to condition [6]: reversal
pathological effects (beagle dog): no pathological effects

COC1=Cc2ccccc2C(=CC(=O)O)c2cc(Cl)sc21 [COMPOUND K2, [2-Chloro-10-methoxy-4H-benzo[4,5]cyclohepta[1,2-b]thiophen-4-ylidene]-acetic acid]
eosinophilic response [3]: reduction of eosinophilic response
lung function parameters [3]: marked improvement
frequency of asthma exacerbation or attack [4]: marked reduction
need for concomitant (bronchodilator) therapy [4]: increasingly reduced need
